In US20160274120A1, “METHODS OF DETERMINING WHETHER THE WNT SIGNALING PATHWAY IS UPREGULATED IN A TUMOR” (ICAHN SCHOOL OF MEDICINE AT MOUNT SINAI, priority 2009, published 2016):

Columns and labels:
Assay type in all cases: cell-based, human
TCF reporter activity = test: TCF mediated luciferase reporter activity (TOP/FOP) in NSCLC cell lines
Procedure: 24 hours before infection, stable reporter cell lines expressing TOP or FOP TCF luciferase and renilla luciferase were plated in 6 well plates at I×IO^5 cells/well. The following day cells were infected with lentiviruses expressing different Wnt antagonists, selected with 2 μg/ml puromycin for 3 days, lysed and processed for luciferase reporter assay using the dual luciferase reporter Kit (Promega) according to the manufacturer's protocol. Luciferase reporter activity was calculated by dividing the ratio TOP/RL by the FOP/RL ratio. Results were normalized to the results with vector transduced cultures.
analysis, cells were co-infected with TOP or FOP firefly luciferase mixed with a lentivirus expressing renilla luciferase (RL) used to normalize for infection efficiency (1:20-1:40 ratio). To assess the effects of FRP1 and DKK1 on TCF luciferase reporter activity, stable reporter cell lines were plated in 6 well plates and infected with vector, FRP1 or DKK1 lentiviruses. Cells were selected for 3 days with puromycin, lysed and processed for dual luciferase analysis. To generate stable inducible lines, cells were infected consecutively with tetracycline trans-activator (tTa) expressing lentivirus, selected for two weeks with 5-10 μg/ml blasticidin, followed by a second infection with lentiviruses expressing inducible FRP1, DKK1, DNTCF-4 or DNTCF-4-mOrange or empty vector, and selected for 4-7 days in 2 μg/ml puromycin in the presence of 10 ng/ml doxycycline. For induction of the antagonists, cells were trypsinized, washed with PBS and plated into 10 cm plates in the presence or absence of doxycyclin. Control cells expressing tTa or empty vector were processed in the same way. All infections were performed for 16 hr in the presence of 8 μg/ml polybrene.

Wnt2 = test: shRNA knockdown quantification of Wnt2 mRNA; settings: H23 cells, lentiviral shRNA
Excerpt: (§1) An shRNA construct targeting human Wnt2 was obtained from Open Biosystems. The 21 bp sequence was 5′-[…]-3′ (SEQ ID NO: 1). An shRNA construct targeting GFP containing 21 bp sequence 5′ […]-3′ (SEQ ID NO: 2), was obtained from Addgene. An shRNA construct targeting human Wnt3a was generated and had the following sequence 5′-GGCGTGGCTTCTGCAGAA-3′ (SEQ ID NO: 61). Viruses were produced in 293T cells using FuGENE 6 (Roche) as described above.
(§2) Total RNA was isolated from cells using the Trizol Reagent (Invitrogen) according to the manufacturer's protocol. Semi-quantitative RT-PCR screen was performed using One Step RT-PCR Kit (Invitrogen) according to the manufacturer's protocol. PCR products were separated on 1% agarose gel. 5 μg total RNA was reverse transcribed using Superscript II reverse transcriptase (Invitrogen). Quantitative PCR was performed using SybrGreen 2× master mix (Roche) on a MJ Opticon or Stratagene MxPro3005. 50 ng cDNA were amplified as follows: 94° C. for 15 min, 94° C. for 15 s, 60° C. for 30 s, 72° C. for 1 min. Steps 2 through 4 were repeated for 40 cycles. Each reaction was performed in duplicate, and results of 3 independent experiments were used for statistical analysis. Relative mRNA expression levels were quantified using the ΔΔC(t) method (Pfaffl, 2001). Results were normalized to those for TATA Binding Protein (TBP). Primer sequences can be found in Tables 4 and 5.

axin2 = test: Real time PCR quantification of axin2 mRNA expression in NSCLC cells
Procedure: as §2

Wnt3a = test: shRNA knockdown quantification of Wnt3a mRNA; settings: H1819 cells, lentiviral shRNA
Excerpt: as §1, §2

Substance	TCF mediated luciferase reporter activity (TCF reporter activity; H23 cells, Wnt2 knockdown)	knock down of Wnt2 mRNA expression (Wnt2) [%]	axin2 expression (axin2; H23 cells, Wnt2 knockdown)	TCF mediated luciferase reporter activity (TCF reporter activity; H1819 cells, Wnt3a knockdown)	axin2 expression (axin2; H1819 cells, Wnt3a knockdown)	knock down of Wnt3a mRNA expression (Wnt3a) [%]
Wnt2 shRNA: shRNA construct targeting human Wnt2 from Open Biosystems, 5′-GCTCATGTACTCTCAGGACAT-3′ (SEQ ID NO: 1) (GCTCATGTACTCTCAGGDCAT; chemistry not fully specified) [reference compound]	significant decrease	80	significant decrease	–	–	–
Wnt3a shRNA: shRNA construct targeting human Wnt3a, 5′-GGCGTGGCTTCTGCAGAA-3′ (SEQ ID NO: 61) [reference compound]	–	–	–	significant decrease	significant decrease	70
